Here are results for four compounds from PMC7707621, “Oxidized Juncuenin B Analogues with Increased Antiproliferative Activity on Human Adherent Cell Lines: Semisynthesis and Biological Evaluation” (Journal of Natural Products, 2020).

For one test, the system named is MCF-7 cells. Nature of the test: MTT antiproliferative assay on MCF-7. The format is cell-based, human. Particulars: Homo sapiens; for inhibition at 10 µM: MCF7, 10 μM; for inhibition at 10 µM / inhibition at 30 µM: read-out: Growth inhibition (% ± SEM), MCF-7; for inhibition at 30 µM: MCF7, 30 μM; for IC50: MCF7, MTT, 0.1–30 μM, 72 h, mean ± SEM, read-out: calculated IC50 values, MCF-7. The protocol: (§1) The antiproliferative assays of the products were carried out by a standard MTT method on human breast (MCF-7, T47D), cervical (HeLa, SiHa, C33A), and ovarian (A2780) cancer cells, and NIH/3T3 mouse embryonic fibroblast cell lines. In the first step, the diastereomeric and racemic mixtures 1–11 and the starting compound, juncuenin B, were tested to obtain information about their antiproliferative activity.
(§2) The antiproliferative activity and tumor selectivity of the compounds were measured by standard MTT assays. Tumor cell lines MCF-7, T47D, HeLa, A2780, and noncancerous NIH/3T3 were provided by European Collection of Authenticated Cell Cultures (ECACC, Salisbury, UK); cell lines SiHa and C33A by LGC Standards GmbH (Wesel, Germany). All chemicals and materials used for the antiproliferative assays were purchased from Sigma Aldrich Ltd. (Budapest, Hungary).
(§3) Growth-inhibition properties of racemates and pure enantiomer compounds were determined by standard MTT assays on six human malignant gynecological cell lines (MCF-7, T47D, HeLa, SiHa, C33A, A2780). To investigate tumor selectivity, the MTT assay was repeated on mouse embryonic fibroblast cells (NIH/3T3) under the same conditions. All cell lines were maintained in minimal essential medium (MEM) supplemented with 10% fetal bovine serum, 1% nonessential amino acids, and 1% penicillin–streptomycin–amphotericin B mixture, and were stored in humidified air containing 5% CO2 at 37 °C. All cell types were seeded into 96–well plates at a density of 5000 with the exception of C33a, which was seeded at a density of 10 000 and treated by increasing concentrations (0.1–30 μM) of the compounds for 72 h under cell culturing conditions. After the incubation, 5 mg/mL MTT [3-(4,5-dimethylthiazol-2-yl)-2,5-diphenyltetrazolium bromide] solution was added to samples for 4 h and precipitated blue formazan crystals were dissolved in DMSO. Absorbance values of the samples were measured at 545 nm using a microplate reader (Stat Fax-2100, Awareness Technologies Inc., Palm City, FL, USA) and untreated cells were used as control. Normalized sigmoidal dose–response curves were fitted to the determined data and the IC50 values were calculated by GraphPad Prism 5.01 (GraphPad Software, San Diego, CA, USA). Cisplatin (Ebewe Pharma GmbH, Unterach, Austria) was used as a reference agent in the same concentration range.

A further test relates to T47D cells. Briefly: MTT antiproliferative assay on T47D. The class given is cell-based, human. The conditions noted are these: Homo sapiens, T47D; for inhibition at 10 µM / inhibition at 30 µM: read-out: Growth inhibition (% ± SEM), T47d; for IC50: MTT, 0.1–30 μM, 72 h, mean ± SEM, read-out: calculated IC50 values, T47D. The protocol:
as §1, §2, §3

The test system of the next test is HeLa cells. Nature of the test: MTT antiproliferative assay on HeLa. The class given is cell-based, human. The conditions noted are these: Homo sapiens, HeLa; for inhibition at 10 µM / inhibition at 30 µM: read-out: Growth inhibition (% ± SEM), HeLa. The protocol:
as §1, §2, §3

In another test the test system is SiHa cells. Briefly: MTT antiproliferative assay on SiHa. The class given is cell-based, human. Particulars: Homo sapiens, SiHa; for inhibition at 10 µM / inhibition at 30 µM: read-out: Growth inhibition (% ± SEM), SiHa; for IC50: MTT, 0.1–30 μM, 72 h, mean ± SEM, read-out: calculated IC50 values, SiHa. The protocol: as §1, §2, §3
Another test has as its system C33A cells. Briefly: MTT antiproliferative assay on C33A. The format is cell-based, human. Particulars: Homo sapiens, C-33-A; for inhibition at 10 µM / inhibition at 30 µM: read-out: Growth inhibition (% ± SEM), C33a. The protocol: as §1, §2, §3
The subject of another test is A2780 cells. Briefly: MTT antiproliferative assay on A2780. The class given is cell-based, human. Particulars: Homo sapiens; for inhibition at 10 µM: A2780, 10 μM; for inhibition at 10 µM / inhibition at 30 µM: read-out: Growth inhibition (% ± SEM), A2780; for inhibition at 30 µM: A2780, 30 μM. The protocol: as §1, §2, §3
For test [1], the system named is NIH/3T3 mouse embryonic fibroblast cells. Nature of the test: MTT assay for tumor selectivity on NIH/3T3. The class given is cell-based. Particulars: for inhibition at 10 µM / inhibition at 30 µM: read-out: Growth inhibition (% ± SEM), NIH. The protocol: as §1, §2, §3
The subject of test [2] is MCF-7, T47D, HeLa, SiHa, C33A, A2780 cells. Briefly: MTT antiproliferative assay, panel of human gynecological cancer cell lines (result in words). The class given is cell-based. The protocol:
as §1, §2, §3

Entries after “also recorded” stand apart in the source; their conditions may differ.

As to `C=CC1=C(C)C(=O)C=C2C3=C(CC[C@]21OC)[C@](C)(OC)C(=O)C=C3` [Compound 1d, 2,6-dioxo-1,8a-dimethoxy-1,7-dimethyl-8-vinyl-9,10-dihydrophenanthrenes], the inhibition at 10 µM in the test with MCF-7 cells is less than 10%; in the test with T47D cells it was less than 10%; in the test with HeLa cells it was 11.4 ± 2.71%; in the test with SiHa cells, less than 10%; with C33A cells it was 22.1 ± 1.44%; in the test on A2780 cells, 45.1 ± 2.08%. In test [1] (Mus musculus, NIH3T3), the inhibition at 10 µM is less than 10%. Further, the inhibition at 30 µM turned out to be 34.6 ± 1.38% in the test on MCF-7 cells; 41.8 ± 1.15% with T47D cells; 25.1 ± 3.84% in the test with HeLa cells; 11.6 ± 2.33% in the test on SiHa cells; 89.4 ± 1% with C33A cells; 92.39 ± 0.36% in the test with A2780 cells. In addition, the inhibition at 30 µM in test [1] (Mus musculus, NIH3T3) is 30.7 ± 2.04%. The IC50 with MCF-7 cells was more than 30 µM; in the test on T47D cells, more than 30 µM; with HeLa cells (MTT, 0.1–30 μM, 72 h, mean ± SEM, read-out: calculated IC50 values, HeLa), more than 30 µM; in the test on SiHa cells, more than 30 µM; in the test on C33A cells (MTT, 0.1–30 μM, 72 h, mean ± SEM, read-out: calculated IC50 values, C33A), 13 ± 0.2 µM; with A2780 cells (A2780, MTT, 0.1–30 μM, 72 h, mean ± SEM, read-out: calculated IC50 values, A2780), 11 ± 0.4 µM. Moreover, in test [1] (Mus musculus, NIH3T3, MTT, 0.1–30 μM, 72 h, mean ± SEM, read-out: calculated IC50 values, NIH/3T3), the IC50 is more than 30 µM.
As for `C=CC1=C(C)C(=O)C=C2C3(OC)C=CC(=O)C(C)=C3CCC21OC` (stereo not shown) [Compound 2a], the inhibition at 10 µM with MCF-7 cells is 40.3 ± 0.95%; in the test on T47D cells, less than 10%; in the test on HeLa cells, 32.3 ± 4.15%; in the test on SiHa cells, 15.4 ± 1.68%; in the test with C33A cells it was less than 10%; with A2780 cells it was less than 10%. In addition, the inhibition at 30 µM in the test on MCF-7 cells stood at 30.5 ± 1.82%; in the test with T47D cells it was 19.8 ± 0.61%; in the test with HeLa cells, 30 ± 0.74%; with SiHa cells, 16.9 ± 2.31%; in the test with C33A cells, 31.9 ± 3.75%; in the test on A2780 cells, 54.6 ± 3.67%. Moreover, the “antiproliferative activity (in words)” value in test [2] is “did not exert antiproliferative activity; also recorded: No significant activities”.
With `C=CC1=C(C)C(=O)C=C2c3ccc(O)c(C)c3CC[C@@]21OC` [Compound 4a], the inhibition at 10 µM is 61.5 ± 1.87% with MCF-7 cells; 37 ± 1.07% in the test on T47D cells; 88.1 ± 0.89% in the test on HeLa cells; less than 10% in the test with SiHa cells; 58.41 ± 0.31% with C33A cells; 44.5 ± 2.01% with A2780 cells. The inhibition at 10 µM in test [1] (Mus musculus, NIH3T3) was found to be 19.2 ± 1.41%. The inhibition at 30 µM with MCF-7 cells was 58.5 ± 0.86%; in the test on T47D cells it was 48.1 ± 1.47%; in the test on HeLa cells it was 62.3 ± 2%; with SiHa cells, 26.3 ± 1.36%; in the test on C33A cells it was 66.6 ± 0.74%; with A2780 cells it was 73.18 ± 0.4%. In addition, the inhibition at 30 µM in test [1] (Mus musculus, NIH3T3) was found to be 51.7 ± 1.68%. In addition, the IC50 in the test with T47D cells and in the test with SiHa cells was more than 30 µM throughout.
Take `C=CC1=C(C)C(=O)C=C2c3ccc(O)c(C)c3CC[C@@]21OCC` [Compound 7a, 8a-ethoxy-1,7-dimethyl-6-oxo-8-vinyl-9,10-dihydrophenanthrene-2-ols]: the inhibition at 10 µM in the test with MCF-7 cells was 41.7 ± 1.37%; in the test on T47D cells it was 57.4 ± 2.46%; in the test on HeLa cells it was 71.1 ± 1.57%; in the test with SiHa cells it was 17 ± 1.88%; in the test on C33A cells, 73.18 ± 0.61%; in the test on A2780 cells, 82.1 ± 0.54%. Besides, the inhibition at 10 µM in test [1] (Mus musculus, NIH3T3) is 23.3 ± 1.48%. In addition, the inhibition at 30 µM was 54.5 ± 1.33% in the test with MCF-7 cells; 57 ± 1.24% in the test on T47D cells; 86.1 ± 1.29% with HeLa cells; less than 10% in the test on SiHa cells; 86.42 ± 0.5% in the test on C33A cells; 84.75 ± 0.4% with A2780 cells. Also, the inhibition at 30 µM in test [1] (Mus musculus, NIH3T3) is 33.8 ± 1.74%. The IC50 was 20.6 ± 0.3 µM in the test on MCF-7 cells and more than 30 µM in the test on SiHa cells. Also, in test [1] (MTT), the “activity against nontumoral NIH/3T3 cells (in words)” value is “inactive”.
